Source: patent publication US20090221642A1, “MUSCARINIC RECEPTOR AGONISTS, COMPOSITIONS, METHODS OF TREATMENT THEREOF, AND PROCESSES FOR PREPARATION THEREOF-176” (AstraZeneca AB, priority 2008, published 2009)

These compounds were tested against T1, hM1 (human Muscarinic receptor subtype 1) (Homo sapiens, UniProt P11229) (assay: Human M1 calcium mobilization FLIPR assay). Settings: hM1 expressed in CHO cells, intracellular Ca2+ release, read-out: hM1 EC50.
T1 construct: expressed in transfected cells; host or cells: CHO cells (Chinese hamster ovary cells, ATCC)
T1 sequence (P11229 1-460): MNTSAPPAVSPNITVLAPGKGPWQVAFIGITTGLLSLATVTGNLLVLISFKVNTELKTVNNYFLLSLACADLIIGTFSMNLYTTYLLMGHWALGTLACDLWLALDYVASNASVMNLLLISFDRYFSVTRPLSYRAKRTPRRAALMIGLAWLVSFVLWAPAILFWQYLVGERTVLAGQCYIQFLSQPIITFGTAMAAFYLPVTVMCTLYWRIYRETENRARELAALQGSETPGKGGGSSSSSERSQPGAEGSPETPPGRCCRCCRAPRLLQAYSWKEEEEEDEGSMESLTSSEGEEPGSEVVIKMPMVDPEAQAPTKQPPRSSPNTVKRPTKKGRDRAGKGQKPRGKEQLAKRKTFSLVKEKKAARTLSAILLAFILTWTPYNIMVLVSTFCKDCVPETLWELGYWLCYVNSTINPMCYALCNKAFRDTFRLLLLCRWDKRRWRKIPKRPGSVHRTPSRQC
Assay type: cell-based
Procedure: Human M1, rat M1, human M3 and human M5 Calcium Mobilization FLIPR™ Assay
The compound activity in the present invention (EC50 or IC50) is measured using a 384 plate-based imaging assay that monitors drug induced intracellular Ca^2+ release in whole cells. Activation of hM1 (human Muscarinic receptor subtype 1, gene bank access NM_000738), rM1 (rat Muscarinic receptor subtype 1, gene bank access NM_080773), hM3 (human Muscarinic receptor subtype 3, gene bank access NM_000740NM_000740) and hM5 (human Muscarinic receptor subtype 5, gene bank access NM_0121258), receptors expressed in CHO cells (Chinese hamster ovary cells, ATCC) is quantified in a Molecular Devices FLIPR II™ instrument as an increase in fluorescent signal. Inhibition of hM3 and hM5 by compounds is determined by the decrease in fluorescent signal in response to 2 nM acetylcholine activation.
Prior to experiment, the cell culture medium is removed from the plates by inversion. […] Plates are incubated at 37° C. for 60 minutes prior to start the experiment. The incubation is terminated by washing the cells four times in assay buffer, leaving a residual 25 μl buffer per well. Cell plates are then transferred to the FLIPR, ready for compound additions.
The day of experiment, acetylcholine and compounds are diluted in assay buffer in three-fold concentration range (10 points serial dilution) for addition by FLIPR instrument. For all calcium assays, a baseline reading is taken for 10 seconds followed by the addition of 12.5 μl of compounds, resulting in a total well volume of 37.5 μl. Data is collected every second for 60 pictures and then every 6 seconds for 20 pictures prior to the addition of agonist. For hM3 and hM5, before agonist addition, a second baseline reading is taken for 10 seconds followed by the addition of 12.5 μl of agonist or buffer, producing a final volume of 50 μl. After agonist stimulation, the FLIPR continues to collect data every second for 60 pictures and then every 6 seconds for 20 pictures. The fluorescence emission is read using filter 1 (emission 510-570 nm) by the FLIPR on board CCD camera.
Calcium mobilization output data are calculated as the maximal relative fluorescence unit (RFU) minus the minimal value for both compound and agonist reading frame (except for hM1 and rM1 using only the maximal RFU). Data are analyzed using sigmoidal fits of a non-linear curve-fitting program (XLfit version 4.2.2 Excel add-in version 4.2.2 build 18 math 1Q version 2.1.2 build 18). All pEC50 and plC50 values are reported as arithmetic means ±standard error of mean of ‘n’ independent experiments.

SMILES | EC50 [nM]
COC(=O)N1CCC(C)(N2CCC(N3C(=O)Cc4cc(F)ccc43)CC2)C1 (racemic) [Example 78, methyl 3-(4-(5-fluoro-2-oxoindolin-1-yl)piperidin-1-yl)-3-methylpyrrolidine-1-carboxylate] | 76.2
CCOC(=O)N1CCC(C)(N2CCC(n3c(=O)[nH]c4cc(C)ccc43)CC2)C1 (single isomer, unassigned) [Example 13, ethyl 3-methyl-3-(4-(5-methyl-2-oxo-2,3-dihydro-1H-benzo[d]imidazol-1-yl)piperidin-1-yl)pyrrolidine-1-carboxylate] | 70.1
CC#CCOC(=O)N1CCC(C)(N2CCC(n3c(=O)[nH]c4ccc(C)cc43)CC2)C1 (single isomer, unassigned) [Example 18, but-2-ynyl 3-methyl-3-(4-(6-methyl-2-oxo-2,3-dihydro-1H-benzo[d]imidazol-1-yl)piperidin-1-yl)pyrrolidine-1-carboxylate] | 158
CC#CCOC(=O)N1CCC(C)(N2CCC(n3c(=O)[nH]c4cc(C)ccc43)CC2)C1 (single isomer, unassigned) [Example 19, but-2-ynyl 3-methyl-3-(4-(5-methyl-2-oxo-2,3-dihydro-1H-benzo[d]imidazol-1-yl)piperidin-1-yl)pyrrolidine-1-carboxylate] | 324
Cc1ccc2c(c1)[nH]c(=O)n2C1CCN(C2(C)CCN(C(=O)OCCF)C2)CC1 (single isomer, unassigned) [Example 29, 2-fluoroethyl 3-methyl-3-(4-(5-methyl-2-oxo-2,3-dihydro-1H-benzo[d]imidazol-1-yl)piperidin-1-yl)pyrrolidine-1-carboxylate] | 166
COC(=O)N1CCC(C)(N2CCC(n3c(=O)[nH]c4ccccc43)CC2)C1 (single isomer, unassigned) [Example 30, methyl 3-methyl-3-(4-(2-oxo-2,3-dihydro-1H-benzo[d]imidazol-1-yl)piperidin-1-yl)pyrrolidine-1-carboxylate] | 108
CC#CCOC(=O)N1CCC(C)(N2CCC(n3c(=O)[nH]c4cc(F)ccc43)CC2)C1 (single isomer, unassigned) [Example 35, but-2-ynyl 3-(4-(5-fluoro-2-oxo-2,3-dihydro-1H-benzo[d]imidazol-1-yl)piperidin-1-yl)-3-methylpyrrolidine-1-carboxylate] | 56.9
COC(=O)N1CCC(C)(N2CCC(n3c(=O)[nH]c4cc(F)ccc43)CC2)C1 (single isomer, unassigned) [Example 37, methyl 3-(4-(5-fluoro-2-oxo-2,3-dihydro-1H-benzo[d]imidazol-1-yl)piperidin-1-yl)-3-methylpyrrolidine-1-carboxylate] | 76.5
CC1(N2CCC(n3c(=O)[nH]c4cc(F)ccc43)CC2)CCN(C(=O)OCCF)C1 (single isomer, unassigned) [Example 38, 2-fluoroethyl 3-(4-(5-fluoro-2-oxo-2,3-dihydro-1H-benzo[d]imidazol-1-yl)piperidin-1-yl)-3-methylpyrrolidine-1-carboxylate] | 112
C#CCOC(=O)N1CCC(C)(N2CCC(n3c(=O)[nH]c4cc(C)ccc43)CC2)C1 (single isomer, unassigned) [Example 42, prop-2-ynyl 3-methyl-3-(4-(5-methyl-2-oxo-2,3-dihydro-1H-benzo[d]imidazol-1-yl)piperidin-1-yl)pyrrolidine-1-carboxylate] | 235
COC(=O)N1CCC(C)(N2CCC(n3c(=O)[nH]c4cc(C)ccc43)CC2)C1 (single isomer, unassigned) [Example 46, methyl 3-methyl-3-(4-(5-methyl-2-oxo-2,3-dihydro-1H-benzo[d]imidazol-1-yl)piperidin-1-yl)pyrrolidine-1-carboxylate] | 132
COC(=O)N1CCC(C)(N2CCC(n3c(=O)[nH]c4ccc(F)cc43)CC2)C1 (single isomer, unassigned) [Example 51, methyl 3-(4-(6-fluoro-2-oxo-2,3-dihydro-1H-benzo[d]imidazol-1-yl)piperidin-1-yl)-3-methylpyrrolidine-1-carboxylate] | 57.1
CC1(N2CCC(n3c(=O)[nH]c4ccc(F)cc43)CC2)CCN(C(=O)OCCF)C1 (single isomer, unassigned) [Example 54, 2-fluoroethyl 3-(4-(6-fluoro-2-oxo-2,3-dihydro-1H-benzo[d]imidazol-1-yl)piperidin-1-yl)-3-methylpyrrolidine-1-carboxylate] | 92.8
COC(=O)N1CCC(C)(N2CCC(n3c(=O)[nH]c4cc(F)c(F)cc43)CC2)C1 (single isomer, unassigned) [Example 59, methyl 3-(4-(5,6-difluoro-2-oxo-2,3-dihydro-1H-benzo[d]imidazol-1-yl)piperidin-1-yl)-3-methylpyrrolidine-1-carboxylate] | 77.6
CC1(N2CCC(n3c(=O)[nH]c4cc(F)c(F)cc43)CC2)CCN(C(=O)OCCF)C1 (single isomer, unassigned) [Example 62, 2-fluoroethyl 3-(4-(5,6-difluoro-2-oxo-2,3-dihydro-1H-benzo[d]imidazol-1-yl)piperidin-1-yl)-3-methylpyrrolidine-1-carboxylate] | 79.8
CCCOC(=O)N1CCC(C)(N2CCC(n3c(=O)[nH]c4ccc(F)cc43)CC2)C1 (single isomer, unassigned) [Example 63, propyl 3-(4-(6-fluoro-2-oxo-2,3-dihydro-1H-benzo[d]imidazol-1-yl)piperidin-1-yl)-3-methylpyrrolidine-1-carboxylate] | 344
CCCOC(=O)N1CCC(C)(N2CCC(n3c(=O)[nH]c4ccc(F)cc43)CC2)C1 (single isomer, unassigned) [Example 64, propyl 3-(4-(6-fluoro-2-oxo-2,3-dihydro-1H-benzo[d]imidazol-1-yl)piperidin-1-yl)-3-methylpyrrolidine-1-carboxylate] | 80.1
CC(C)OC(=O)N1CCC(C)(N2CCC(n3c(=O)[nH]c4ccc(F)cc43)CC2)C1 (single isomer, unassigned) [Example 65, isopropyl 3-(4-(6-fluoro-2-oxo-2,3-dihydro-1H-benzo[d]imidazol-1-yl)piperidin-1-yl)-3-methylpyrrolidine-1-carboxylate] | 104
CC(C)OC(=O)N1CCC(C)(N2CCC(n3c(=O)[nH]c4ccc(F)cc43)CC2)C1 (single isomer, unassigned) [Example 66, isopropyl 3-(4-(6-fluoro-2-oxo-2,3-dihydro-1H-benzo[d]imidazol-1-yl)piperidin-1-yl)-3-methylpyrrolidine-1-carboxylate] | 50.2
COC(=O)N1CCC(C)(N2CCC(N3C(=O)Cc4ccc(F)cc43)CC2)C1 (single isomer, unassigned) [Example 77, methyl 3-(4-(6-fluoro-2-oxoindolin-1-yl)piperidin-1-yl)-3-methylpyrrolidine-1-carboxylate] | 94.5
CC(C)OC(=O)N1CCC(C)(N2CCC(n3c(=O)[nH]c4ccccc43)CC2)C1 (centres unmarked) [Example 3, isopropyl 3-methyl-3-(4-(2-oxo-2,3-dihydro-1H-benzo[d]imidazol-1-yl)piperidin-1-yl)pyrrolidine-1-carboxylate] | 108
CC(C)OC(=O)N1CCC(C)(N2CCC(n3c(=O)[nH]c4cc(F)ccc43)CC2)C1 (centres unmarked) [Example 9, isopropyl 3-(4-(5-fluoro-2-oxo-2,3-dihydro-1H-benzo[d]imidazol-1-yl)piperidin-1-yl)-3-methylpyrrolidine-1-carboxylate] | 124
COC(=O)N1CCC(C)(N2CCC(N3C(=O)Cc4ccccc43)CC2)C1 (centres unmarked) [Example 71, methyl 3-methyl-3-(4-(2-oxoindolin-1-yl)piperidin-1-yl)pyrrolidine-1-carboxylate] | 123
